The source of these data is patent US20230312587A1, “PTERIDINONE COMPOUNDS AND USES THEREOF” (Vertex Pharmaceutical Incorporated, priority 2018, published 2023).

Like-named read-outs stand apart in the source and are kept apart here.

Assay [1] concerns HepG2 WFS1 KO. The assay is described as follows: In vitro cell viability (CellTiter-Glo), HepG2 WFS1 KO. Type of assay: cell-based. The settings on record: for IC50: Homo sapiens, 96 hours. The text has this:
A double cleavage strategy was employed to remove large fragments from the WFS1 locus. Suitable target sites in WFS1 exon 8 were first selected using CRISPR design software to rank suitable target sites and computationally predict off-target sites for each intended target. Six top guide RNA sequences are identified and screened for activity using the Surveyor Mutation Detection Kit (Integrated DNA Technologies). Then, the best 2 guide RNAs were cloned into GeneArt OFP CRISPR nuclease vectors (Thermofisher, Cat #A21174) separately and co-transfected into HepG2 cells using nucleofection (4D Nucleofector X, Lonza). Cells were sorted by FACS 48 hrs later to enrich for the OFP positive cell population. The OFP positive cell population were plated into 96-well plates at 0.5-5 cells/well to isolate clonal cell lines. After allowing cells to expand for 2-3 weeks, plates were inspected for presence of colonies. When colonies became more than 70% confluent, they were dissociated with trypsin and were further expanded. Cell clones with homozygous double cleavage of WFS1 exon 8 were detected with PCR and confirmed with DNA sequencing.
HEK293 cells containing empty pCLPCx vector (HEK293 empty), HEK293 cells stably over-expression WFS1 (HEK293 WFS1), HepG2, and HepG2 cells where WFS1 was depleted via CRISPR/Cas9 (HepG2 WFS1 KO) cells were plated into 96-well black plates (Corning, product #3904) in 100 microliters of complete DMEM cell culture media [DMEM (Life Technologies, product #11960-051) media supplemented with 10% FBS (Hyclone, catalog #SH30071.03), antimycotic/antibiotic (Life Technologies, product #15240-062), and Glutamax (Life Technologies, product #35050-061)] at 1,000 (HEK293) or 5,000 (HepG2) cells per well. Cells were allowed to attach and grow overnight, after which compounds are added at various concentrations. Cell viability was assessed 96 hrs after compound addition with CellTiter-Glo reagent (Promega, catalog #G7570) according to manufacturer's protocol and measurement on a Pherastar luminescence plate reader (BMG Labtech).
To determine the effect of WFS1 depletion on compound mediated inhibition of cell viability, parental HepG2 cells and HepG2 cells where WFS1 was deleted by CRISPR/Cas9 were exposed to increasing concentrations of either Compound 136 or Compound 253 for 96 hours after which time viability was determined using Cell Titer Glo reagent (Promega). […] The IC50s for the viability of both the HepG2 parental and WFS1 knockout cells are summarized in Table 47: A<0.5 μM; 0.5 μM≤<2.0 μM; 2.0 μM≤C<10.0 μM; D≥[…].
Background: ATP-based viability assays read luminescence as a measure of living cells.

The target of assay [2] is Plk1 (Homo sapiens (Human), UniProt P53350). Put plainly: PLK1 inhibition assay (radioactive-phosphate incorporation). In kind it is biochemical. The settings on record: Ki(app), read-out: PLK1 - 33P.ENZ - CB 10 Ki. The gist of the method: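 Radioactive-phosphate incorporation with 15 nM Plk1 and 9 µM Sam68 substrate, 20 µM [γ-33P]ATP, in 25 mM HEPES pH 7.5, 10 mM MgCl2, 25 mM NaCl, 2 mM DTT, 1.5% DMSO, room temperature, 45 min. Stopped with TCA/cold ATP, filtered, scintillation counted. Ki(app) from non-linear regression of background-corrected initial rates.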
Plk1, sequence (P53350 whole entry, species assumed): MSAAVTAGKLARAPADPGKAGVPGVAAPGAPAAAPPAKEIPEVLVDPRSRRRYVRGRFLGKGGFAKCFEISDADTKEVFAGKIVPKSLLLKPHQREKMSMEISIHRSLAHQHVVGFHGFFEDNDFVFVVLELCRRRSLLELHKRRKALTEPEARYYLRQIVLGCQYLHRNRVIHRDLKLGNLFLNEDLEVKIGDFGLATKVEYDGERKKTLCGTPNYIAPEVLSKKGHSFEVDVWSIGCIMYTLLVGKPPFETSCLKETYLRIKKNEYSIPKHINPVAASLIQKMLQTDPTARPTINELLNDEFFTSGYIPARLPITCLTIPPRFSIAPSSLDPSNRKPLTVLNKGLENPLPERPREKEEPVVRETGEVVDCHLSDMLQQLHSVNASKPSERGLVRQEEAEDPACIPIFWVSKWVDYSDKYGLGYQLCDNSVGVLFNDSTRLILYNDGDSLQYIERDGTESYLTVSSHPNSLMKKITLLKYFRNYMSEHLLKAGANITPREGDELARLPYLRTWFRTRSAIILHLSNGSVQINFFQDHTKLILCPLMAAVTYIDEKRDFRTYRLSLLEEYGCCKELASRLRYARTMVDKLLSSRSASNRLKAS

The subject of assay [3] is non-small cell lung cancer (NSCLC) adenocarcinoma line D33966. Put plainly: In vivo efficacy, NSCLC patient derived xenograft OD33966. More on the design: species or system nu/nu mice. The settings on record: Mus musculus, NSCLC PDX OD33966, oral, read-out: % TGI; for inhibition in vivo at 100 mg/kg: 100 mpk qd. On the procedure:
Female immune deficient mice (Charles River, 4-6 wks age) were anesthetized with Ketamine-Xylazine (140 mg/kg-14 mg/kg ip) and shaved. Puralube eye ointment was applied to the eyes to prevent desiccation of the corneas. Betadine and 70% ethanol was applied to the shaved location to sterilize the skin at the location of the incision. The animals were placed in a biosafety cabinet for the duration of the surgery. Using scissors, an 8 to 10 mm incision was made in the lateral flank of the skin. A tumor fragment weighing between 50 and 150 mg was placed under the skin at the incision site using forceps, and staples were used to close the incision. The staples were removed 5 to 7 days after surgery. Starting approximately two weeks after implantation, animals were weighed, and tumors were measured using caliper twice weekly. Tumor volume was calculated using the formula: volume=length×width^2×0.52.
Compound administration began when xenografts reached approximately 100-300 mm3 and continued until control xenografts reached […] of the animal's body weight. Test compounds were administered orally by gastric gavage. Percent tumor growth inhibition (TG) was calculated on the indicated treatment day. Percent TGI is defined as: [1−(del T/del C)]×100%, where del T is the final minus initial average volumes of the treated group, and del C is the final minus initial average volumes of the control group. […] The tested compounds were administered orally. Vehicle control consisted of either 0.5% methylcellulose/0.1% sodium lauryl sulfate or 20% captisol. Tumor volumes were determined by caliper measurement twice a week.
Background: In xenograft studies the graft and the host belong to different species.

Where [4] appears, read: HepG2 WFS1 knockout, read-out: HepG2 WFS1 KO viability.

With `Cc1nc(NCc2cnn(Cc3ccc(F)cc3)c2)nc2c1N(C)C(=O)[C@H](C)N2C` [Compound 1, (7S)-2-(((1-(4-fluorobenzyl)-1H-pyrazol-4-yl)methyl)amino)-4,5,7,8-tetramethyl-7,8-dihydropteridin-6(5H)-one], in assay [1] (setting [4]), the IC50 is ≥ 10 µM. Also, in assay [2], the Ki was > 4 µM. For the same molecule, in assay [3] (456 h, 200 mpk bid, treatment day 19), the inhibition in vivo at 200 mg/kg was 94.5%.
Turning to `COc1cc(F)ccc1Cn1cc(CNc2nc(C)c3c(n2)N(C)[C@@H](C)C(=O)N3)cn1` [Compound 83, (7S)-2-(((1-(4-fluoro-2-methoxybenzyl)-1H-pyrazol-4-yl)methyl)amino)-4,7,8-trimethyl-7,8-dihydropteridin-6(5H)-one], in assay [3] (336 h, treatment day 14), the inhibition in vivo at 100 mg/kg was determined as 97.2%.
Regarding `Cc1nc(NCc2cnn(CCc3ccc(F)cc3)c2)nc2c1N(C)C(=O)[C@H](C)N2C` [Compound 8, (7S)-2-(((1-(4-fluorophenethyl)-1H-pyrazol-4-yl)methyl)amino)-4,5,7,8-tetramethyl-7,8-dihydropteridin-6(5H)-one], in assay [1] (setting [4]), the IC50 is ≥ 10 µM. The Ki in assay [2] is > 4 µM.
Take `Cc1nc(N[C@H]2C[C@@H](Oc3cc(F)c(F)c(F)c3)C2)nc2c1NC(=O)[C@H](C)N2C` [Compound 247, (7S)-4,7,8-trimethyl-2-((cis-3-(3,4,5-trifluorophenoxy)cyclobutyl)amino)-7,8-dihydropteridin-6(5H)-one]: in assay [1] (setting [4]), the IC50 is ≥ 10 µM. Further, the Ki in assay [2] is > 4 µM.
As to `Cc1nc(N[C@H]2C[C@H](Oc3cc(F)c(F)c(F)c3)C2)nc2c1N(C)C(=O)[C@H](C)N2C` [Compound 253, (7S)-4,5,7,8-tetramethyl-2-((trans-3-(3,4,5-trifluorophenoxy)cyclobutyl)amino)-7,8-dihydropteridin-6(5H)-one], the IC50 in assay [1] (cell viability, HepG2 WFS1 KO, Cell Titer Glo, read-out: IC50) was 4.4 µM; in assay [1] (cell viability, HepG2 WFS1 KO, read-out: IC50 class) it was 2 to 10 µM. Also, the “shift in IC50 on depletion of WFS1 from HepG2 cells” value in assay [1] (cell viability, WFS1 KO vs parental HepG2, 96 hours) was “greater than 5 fold”. For the same molecule, the Ki in assay [2] was > 4 µM. The inhibition in vivo at 100 mg/kg in assay [3] (336 h, treatment day 14) stood at 96.6%.
Regarding `Cc1nc(N[C@@H]2CC[C@@H](Oc3cc(F)c(F)c(F)c3)C2)nc2c1N(C)C(=O)[C@H](C)N2C` [Compound 272, (S)-4,5,7,8-tetramethyl-2-(((1R,3R)-3-(3,4,5-trifluorophenoxy)cyclopentyl)amino)-7,8-dihydropteridin-6(5H)-one], the inhibition in vivo at 100 mg/kg in assay [3] (336 h, treatment day 14) stood at 77.9%.
Regarding `Cc1nc(NCc2cnn(Cc3ccc(F)nc3)c2)nc2c1NC(=O)[C@H](C)N2C` [Compound 77], in assay [3] (336 h, treatment day 14), the inhibition in vivo at 100 mg/kg was 98.5%.
For the molecule `COc1c(F)cc(Cn2cc(CNc3nc(C)c4c(n3)N(C)[C@@H](C)C(=O)N4)cn2)cc1F` [Compound 46, (7S)-2-(((1-(3,5-difluoro-4-methoxybenzyl)-1H-pyrazol-4-yl)methyl)amino)-4,7,8-trimethyl-7,8-dihydropteridin-6(5H)-one], the Ki in assay [2] is > 4 µM. Further, the inhibition in vivo at 100 mg/kg in assay [3] (336 h, treatment day 14) is 93.3%.
In the case of `Cc1nc(N(C)Cc2cnn(Cc3ccc(C(F)(F)F)nc3)c2)nc2c1NC(=O)[C@H](C)N2C` [Compound 403, (7S)-4,7,8-trimethyl-2-(methyl((1-((6-(trifluoromethyl)pyridin-3-yl)methyl)-1H-pyrazol-4-yl)methyl)amino)-7,8-dihydropteridin-6(5H)-one], the inhibition in vivo at 100 mg/kg in assay [3] (288 h, treatment day 12) turned out to be 103%.
`Cc1nc(N[C@H]2C[C@H](Oc3cc(F)c(F)c(F)c3)C2)nc2c1NC(=O)[C@H](C)N2C` [Compound 246, (7S)-4,7,8-trimethyl-2-((trans-3-(3,4,5-trifluorophenoxy)cyclobutyl)amino)-7,8-dihydropteridin-6(5H)-one]: the Ki in assay [2] was > 4 µM. In assay [3] (264 h, treatment day 11), the inhibition in vivo at 100 mg/kg came to 82.6%.
`Cc1cc(F)ncc1Cn1cc(CNc2nc(C)c3c(n2)N(C)[C@@H](C)C(=O)N3)cn1` [Compound 94, (7S)-2-(((1-((6-fluoro-4-methylpyridin-3-yl)methyl)-1H-pyrazol-4-yl)methyl)amino)-4,7,8-trimethyl-7,8-dihydropteridin-6(5H)-one]: in assay [3] (336 h, treatment day 14), the inhibition in vivo at 100 mg/kg came out at 94.5%.
For the molecule `Cc1nc(NCc2cnn(CC3CCC3)c2)nc2c1N(C)C(=O)[C@H](C)N2C` [Compound 7, (7S)-2-(((1-(cyclobutylmethyl)-1H-pyrazol-4-yl)methyl)amino)-4,5,7,8-tetramethyl-7,8-dihydropteridin-6(5H)-one], the IC50 in assay [1] (setting [4]) is ≥ 10 µM. The Ki in assay [2] was > 4 µM.
The corresponding values for `CC[C@H]1C(=O)Nc2cnc(NCc3cnn(Cc4ccc(F)cc4)c3)nc2N1C` [Compound 9, (7S)-7-ethyl-2-(((1-(4-fluorobenzyl)-1H-pyrazol-4-yl)methyl)amino)-8-methyl-7,8-dihydropteridin-6(5H)-one] are ≥ 10 µM and > 4 µM.
Consider `Cc1nc(NCc2cnn(CCc3ccc(F)cc3)c2)nc2c1NC(=O)[C@H](C)N2C` [Compound 6, (7S)-2-(((1-(4-fluorophenethyl)-1H-pyrazol-4-yl)methyl)amino)-4,7,8-trimethyl-7,8-dihydropteridin-6(5H)-one], for which, in assay [1] (setting [4]), the IC50 was ≥ 10 µM. In addition, in assay [2], the Ki is > 4 µM.
On to `CC(=O)N(Cc1cnn(Cc2ccc(C(F)(F)F)nc2)c1)c1nc(C)c2c(n1)N(C)[C@@H](C)C(=O)N2` [Compound 405, (7S)-N-((1-((6-(trifluoromethyl)pyridin-3-yl)methyl)-1H-pyrazol-4-yl)methyl)-N-(4,7,8-trimethyl-6-oxo-5,6,7,8-tetrahydropteridin-2-yl)acetamide], for which the inhibition in vivo at 100 mg/kg in assay [3] (288 h, treatment day 12) was found to be 91%.
In the case of `Cc1nc(NCc2cnn(Cc3cnc(Cl)c(F)c3)c2)nc2c1NC(=O)[C@H](C(C)C)N2C` [Compound 424, (7S)-2-(((1-((6-chloro-5-fluoropyridin-3-yl)methyl)-1H-pyrazol-4-yl)methyl)amino)-7-isopropyl-4,8-dimethyl-7,8-dihydropteridin-6(5H)-one], in assay [1] (setting [4]), the IC50 was ≥ 10 µM.
The same measure, in the same setting: under `Cc1nc(NCc2cnn(Cc3ccc(C(F)(F)F)nc3C(C)O)c2)nc2c1NC(=O)[C@H](C)N2C` (stereo partly drawn) [Compound 419, (7S)-2-(((1-((2-((S)-1-hydroxyethyl)-6-(trifluoromethyl)pyridin-3-yl)methyl)-1H-pyrazol-4-yl)methyl)amino)-4,7,8-trimethyl-7,8-dihydropteridin-6(5H)-one] stands ≥ 10 µM; under `Cc1nc(NCc2cnn(Cc3ccc(C(F)(F)F)nc3Cl)c2)nc2c1NC(=O)[C@H](C)N2C` [Compound 418, (7S)-2-(((1-((2-chloro-6-(trifluoromethyl)pyridin-3-yl)methyl)-1H-pyrazol-4-yl)methyl)amino)-4,7,8-trimethyl-7,8-dihydropteridin-6(5H)-one], ≥ 10 µM.
